The values below come from paper PMC7587356, “High-Throughput Screening for Inhibitors of the SARS-CoV-2 Protease Using a FRET-Biosensor” (Molecules, 2020).

The assay addresses SARS-CoV-2 3CLpro (Severe acute respiratory syndrome coronavirus 2, UniProt P0DTD1). Nature of the assay: biochemical. Format: biochemical. Set-up: Replicate_1 / Replicate_2 / mean / mean (LOPAC_screen_w_protease): unit not given here. The following applies: for inhibition at 5 µM: 4 h.
The mark [1] stands for this setting: sheet LOPAC_screen_w_protease, primary screen with protease, 5 µM, mean of two replicates.
[2] abbreviates: sheet LOPAC_screen_w_protease, primary screen with protease, 5 µM, replicate 1.
Where [3] appears, read: sheet LOPAC_screen_w_protease, primary screen with protease, 5 µM, replicate 2.
Setting [4] is: LOPAC1280 primary screen with protease, 5 µM compound, mean of two replicates.
Where [5] appears, read: LOPAC1280 primary screen with protease, 5 µM compound, replicate 1.
Where [6] appears, read: LOPAC1280 primary screen with protease, 5 µM compound, replicate 2.
The mark [7] stands for this setting: LOPAC1280 primary screen with protease, 5 µM compound, replicate 1, read-out: Replicate_1 (LOPAC_screen_w_protease).
Where [8] appears, read: LOPAC1280 primary screen with protease, 5 µM compound, replicate 2, read-out: Replicate_2 (LOPAC_screen_w_protease).
Where [9] appears, read: sheet LOPAC_screen_w_protease, LOPAC1280 primary screen with protease, 5 µM compound, mean of the two replicates.
Where [10] appears, read: sheet LOPAC_screen_w_protease, LOPAC1280 primary screen with protease, 5 µM compound, replicate 1.
[11] abbreviates: sheet LOPAC_screen_w_protease, LOPAC1280 primary screen with protease, 5 µM compound, replicate 2.
Setting [12] is: sheet LOPAC_screen_w_protease, LOPAC1280 at 5 µM, mean of two replicates.
[13] abbreviates: sheet LOPAC_screen_w_protease, LOPAC1280 at 5 µM, replicate 1.
Setting [14] is: sheet LOPAC_screen_w_protease, LOPAC1280 at 5 µM, replicate 2.
Where [15] appears, read: sheet LOPAC_screen_w_protease, primary screen at 5 µM, mean of two replicates.
Where [16] appears, read: sheet LOPAC_screen_w_protease, primary screen at 5 µM, replicate 1.
Setting [17] is: sheet LOPAC_screen_w_protease, primary screen at 5 µM, replicate 2.
[18] abbreviates: sheet LOPAC_screen_w_protease, primary screen at 5 µM, mean of two replicates, read-out: mean (LOPAC screen with protease).
[19] abbreviates: sheet LOPAC_screen_w_protease, primary screen at 5 µM, replicate 1, read-out: Replicate_1 (LOPAC screen with protease).
Where [20] appears, read: sheet LOPAC_screen_w_protease, primary screen at 5 µM, replicate 2, read-out: Replicate_2 (LOPAC screen with protease).
The mark [21] stands for this setting: sheet LOPAC_screen_w_protease, primary screen with protease, compound at 5 µM, mean of two replicates.
The mark [22] stands for this setting: sheet LOPAC_screen_w_protease, primary screen with protease, compound at 5 µM, replicate 1.
Where [23] appears, read: sheet LOPAC_screen_w_protease, primary screen with protease, compound at 5 µM, replicate 2.
Where [24] appears, read: sheet LOPAC_screen_w_protease, LOPAC1280 primary screen at 5 µM, with protease, mean of the two replicates.
Setting [25] is: sheet LOPAC_screen_w_protease, LOPAC1280 primary screen at 5 µM, with protease, replicate 1.
Where [26] appears, read: sheet LOPAC_screen_w_protease, LOPAC1280 primary screen at 5 µM, with protease, replicate 2.
[27] abbreviates: LOPAC1280 primary screen with protease, 5 µM compound, mean of the two replicates.

Counter-ions that a name gives are not always drawn. Like-named read-outs stand apart in the source and are kept apart here.

Under setting [1], `C=CC(N)CCC(=O)O` (racemic) [(±)-gamma-Vinyl GABA] displayed a mean of -0.2228. For the same compound, under setting [2], the Replicate_1 is given as -0.2758. The Replicate_2 under setting [3] is -0.1698.

As to `CCCCCCCCCCCCCCCCCCNC(=O)OCC(COP(=O)([O-])OCC[n+]1ccsc1)OC` (stereo not shown) [CV-3988], the “mean (LOPAC_screen_w_protease)” value under setting [4] worked out at 1.326. For the same compound, the “Replicate_1 (LOPAC_screen_w_protease)” value under setting [5] is on record as -0.07699. Further, the “Replicate_2 (LOPAC_screen_w_protease)” value under setting [6] was determined as 2.73.

For the compound `O=C(CCCN1CCC(O)(c2cccc(C(F)(F)F)c2)CC1)c1ccc(F)cc1` [Trifluperidol hydrochloride], the inhibition at 5 µM under setting [7] is -0.00744% and the inhibition at 5 µM under setting [8] stood at 3.06%. Under setting [4], the “mean (LOPAC_screen_w_protease)” value is recorded as 1.525.

For the compound `Cc1nnc2ccc(-c3cccc(C(F)(F)F)c3)nn12`, under setting [9], the mean was 4.5531. In addition, the Replicate_1 under setting [10] came to 2.841. Under setting [11], this compound returned a Replicate_2 of 6.265.

Under setting [12], `CN(C)C(N)=NCCC[C@H](N)C(=O)O.Cl` [N^G,N^G-Dimethylarginine hydrochloride] showed a mean of 0.9307. Besides, the Replicate_1 under setting [13] came to 2.142. Under setting [14], this compound yielded a Replicate_2 of -0.2808.

`COCc1nc2c([nH]1)c(=O)n(C)c(=O)n2CC(C)C` gave a mean under setting [9] of 5.36. The Replicate_1 under setting [10] is on record as 6.304. This compound gave a Replicate_2 under setting [11] of 4.4152.

Turning to `C[N+]1(C)CCC(OC(=O)C(c2ccccc2)c2ccccc2)CC1.[I-]` [4-DAMP methiodide], where the note is “sheet LOPAC_screen_w_protease, primary screen with protease, mean of two replicates”, the mean stood at 2.136. For the same compound, the Replicate_1 (sheet LOPAC_screen_w_protease, primary screen with protease, replicate 1) is listed as 2.4758. Under “sheet LOPAC_screen_w_protease, primary screen with protease, replicate 2”, this compound had a Replicate_2 of 1.796.

`Br.Br.NC(N)=NCCSSCCN=C(N)N` [Guanidinoethyl disulfide dihydrobromide]: the “mean (LOPAC screen with protease)” value under setting [15] stood at 36.2152. Besides, the “Replicate_1 (LOPAC screen with protease)” value under setting [16] amounted to 35.2116. Under setting [17], the “Replicate_2 (LOPAC screen with protease)” value is 37.2188.

On to `Cc1cc(O)c2c(c1)C(=O)c1cc(O)cc(O)c1C2=O` [Emodin], for which the inhibition at 5 µM reads like this: (read-out: Replicate_1 (LOPAC screen with protease)) 10.9%; (read-out: Replicate_2 (LOPAC screen with protease)) 5.72%; (read-out: mean (LOPAC screen with protease)) 8.32%.

Turning to `Clc1ccccc1C(c1ccccc1)(c1ccccc1)n1ccnc1` [Clotrimazole], the inhibition at 5 µM (read-out: Replicate_1) was determined as 3.08%, the inhibition at 5 µM (read-out: Replicate_2) was 3.07% and the inhibition at 5 µM (read-out: mean) stood at 3.07%.

On to `O=c1cc(-c2ccc(O)cc2)oc2cc(O)cc(O)c12` [Apigenin], for which the inhibition at 5 µM runs as follows: (read-out: Replicate_1) 0.663%; (read-out: Replicate_2) -0.402%; (read-out: mean) 0.131%.

Take `Clc1ccc(C(c2ccc(Cl)cc2)n2cc[n+](CC(OCc3ccc(Cl)cc3Cl)c3ccc(Cl)cc3Cl)c2)cc1` (stereo not shown) [Calmidazolium chloride]: the inhibition at 5 µM by setting is: under setting [18], 9.31%; under setting [19], 8.14%; under setting [20], 10.5%.

`CC12NC(Cc3ccccc31)c1ccccc12.O=C(O)/C=C\C(=O)O` (single isomer, unassigned; (+)) [(+)-MK-801 hydrogen maleate] came in with a mean under setting [21] of 2.6873. Further, the Replicate_1 under setting [22] stood at 4.9061. This compound also gave a Replicate_2 under setting [23] of 0.4685.

Compound `CCn1cnc2c(Nc3cccc(Cl)c3)nc(N[C@@H]3CCCC[C@@H]3N)nc21.Cl` [CGP-74514A hydrochloride] had a mean under setting [24] of 0.7839. Under setting [25], this compound showed a Replicate_1 of 2.043. Also, the Replicate_2 under setting [26] is recorded as -0.4753.

As to `O=[N+]([O-])c1cccc2cn[nH]c12` [7-Nitroindazole], the inhibition at 5 µM came out at 3.04% (sheet LOPAC_screen_w_protease, primary screen with protease, compound at 5 µM, mean of two replicates, read-out: mean); 2.19% (sheet LOPAC_screen_w_protease, primary screen with protease, compound at 5 µM, replicate 1, read-out: Replicate_1); 3.89% (sheet LOPAC_screen_w_protease, primary screen with protease, compound at 5 µM, replicate 2, read-out: Replicate_2).

With `O=C(O)CCc1nc(-c2ccccc2)c(-c2ccccc2)o1` [Oxaprozin], the inhibition at 5 µM (read-out: Replicate_1) was found to be 3.59%, the inhibition at 5 µM (read-out: Replicate_2) turned out to be 3.25% and the inhibition at 5 µM (read-out: mean) was determined as 3.42%.

As to `Cl.NCC(O)C1CCCCCCC1` (stereo not shown), the mean under setting [12] was 1.1388. Further, the Replicate_1 under setting [13] is 2.0547. Moreover, under setting [14], the Replicate_2 was 0.2229.

Compound `N#CC(=Cc1ccc(O)c(O)c1)C(=O)NCCc1ccccc1` [Tyrphostin AG 698] returned a mean under setting [21] of 2.9723. Also, the Replicate_1 under setting [22] was 3.137. The same compound returned a Replicate_2 under setting [23] of 2.808.

On to `CNCCc1c[nH]c2ccc(O)cc12.O=C(O)C(=O)O`, for which the mean under setting [9] was determined as 5.527. The compound further gave a Replicate_1 under setting [10] of 5.7. The Replicate_2 under setting [11] is on record as 5.354.

`NCCSSCCN` [Cystamine dihydrochloride]: the inhibition at 5 µM amounted to 14.4% under setting [18], 14.2% under setting [19] and 14.5% under setting [20].

`CCNC(=O)[C@H]1O[C@@H](n2cnc3c(N)nc(NCCc4ccc(CCC(=O)O)cc4)nc32)[C@H](O)[C@@H]1O.Cl` [CGS-21680 hydrochloride]: under “sheet LOPAC_screen_w_protease, primary screen of LOPAC1280 at 5 µM with protease, mean of the two replicates”, the mean is recorded as 3.628. The Replicate_1 (sheet LOPAC_screen_w_protease, primary screen of LOPAC1280 at 5 µM with protease, replicate 1) came to 4.89. The compound also came in with a Replicate_2 (sheet LOPAC_screen_w_protease, primary screen of LOPAC1280 at 5 µM with protease, replicate 2) of 2.366.

Consider `CC(C)CC(NC(=O)C1OC1C(=O)O)C(=O)NCCCCNC(=N)N` (stereo not shown) [E-64], for which the mean under setting [1] is reported as 0.2813. For the same compound, under setting [2], the Replicate_1 was determined as 1.4489. The compound further showed a Replicate_2 under setting [3] of -0.8864.

In the case of `COC(=O)C1=C(C)NC(C)=C(C(=O)OC)C1c1ccccc1[N+](=O)[O-]` [Nifedipine], the inhibition at 5 µM under setting [18] is 14.6%, the inhibition at 5 µM under setting [19] was 13.8% and the inhibition at 5 µM under setting [20] was found to be 15.5%.

`C[Se]C[C@H](N)C(=O)O.Cl` [Se-(methyl)selenocysteine hydrochloride]: the “mean (LOPAC screen with protease)” value under setting [15] was 12.3582. In addition, the “Replicate_1 (LOPAC screen with protease)” value under setting [16] came to 13.6627. For the same compound, the “Replicate_2 (LOPAC screen with protease)” value under setting [17] is listed as 11.0537.

For the compound `CC(C)NCC(O)c1ccc(O)c(O)c1.Cl` (racemic) [(±)-Isoproterenol hydrochloride], the Replicate_1 under setting [22] came out at 3.707. Moreover, under setting [23], the Replicate_2 is given as 1.7371.

For the compound `NCCc1c[nH]c2ccc(C(N)=O)cc12.O=C(O)/C=C\C(=O)O` [5-Carboxamidotryptamine maleate], the “mean (LOPAC_screen_w_protease)” value under setting [27] was 1.776. In addition, the “Replicate_1 (LOPAC_screen_w_protease)” value under setting [5] was determined as 2.928. Under setting [6], the “Replicate_2 (LOPAC_screen_w_protease)” value amounted to 0.6229.

Take `COC(=O)[C@H]1[C@H]2C[C@@H]3c4[nH]c5cc(OC)ccc5c4CCN3C[C@H]2C[C@@H](OC(=O)c2cc(OC)c(OC)c(OC)c2)[C@@H]1OC` [Reserpine]: the inhibition at 5 µM (read-out: Replicate_1 (LOPAC_screen_w_protease)) worked out at 2.93% and the inhibition at 5 µM (read-out: Replicate_2 (LOPAC_screen_w_protease)) came to 0.694%.

As to `NCCS(=O)O` [Hypotaurine], the inhibition at 5 µM is, setting by setting: under setting [7], 4.13%; under setting [8], -0.407%. In addition, under setting [27], the “mean (LOPAC_screen_w_protease)” value amounted to 1.861.

On to `CS(=O)(=O)O.Cn1cc(C(F)(F)F)nc1-c1ccc(OCC(O)CNCCOc2ccc(O)c(C(N)=O)c2)cc1` (stereo not shown) [CGP 20712A methanesulfonate], for which, under setting [24], the mean was found to be 0.4402. Further, the Replicate_1 under setting [25] was determined as 1.402. Under setting [26], this compound had a Replicate_2 of -0.5212.

As to `O=c1c2ccccc2nc2n1CCc1c-2[nH]c2ccccc12` [Rutaecarpine], the inhibition at 5 µM (sheet LOPAC_screen_w_protease, LOPAC1280 primary screen at 5 µM, with protease, mean of the two replicates, read-out: mean) stood at 0.598%; the inhibition at 5 µM (sheet LOPAC_screen_w_protease, LOPAC1280 primary screen at 5 µM, with protease, replicate 1, read-out: Replicate_1) turned out to be 1.54%; the inhibition at 5 µM (sheet LOPAC_screen_w_protease, LOPAC1280 primary screen at 5 µM, with protease, replicate 2, read-out: Replicate_2) is -0.348%.
